Our source for the inhibition values is patent US10717720B2, “Modified compound of andrographolide” (Heilongjiang Zhenbaodao Pharmaceutical Co., Ltd., priority 2015, dated 2020).

This assay concerns LPS-induced IL-6 release level from THP-1 cells. In words: Test of IL-6 release from THP-1 cells (LPS-induced, IL-6 in supernatant detected by CBA). It is filed as cell-based. The conditions noted are these: Homo sapiens, read-out: Inhibition rate @ 10 uM. On the procedure: Test of IL-6 Release from THP-1 Cells
The inhibitory effect of the compound on LPS-induced IL-6 release level from THP-1 cells was evaluated by measuring the level of IL-6 in the cell culture supernatant.
4 ul was taken from each above solution and added to lml of culture solution to make 120 uM, 40 uM, 12 uM, 4 uM. 50 ul per well was taken and added to wells with cells to give final concentrations of 30 uM, 10 uM, 3 uM, and 1 uM, respectively. Dexamethasone was added as a positive drug into an individual cell well with a final concentration of 100 nM. • c) Cell stimulation
The LPS 1 mg/ml solution was diluted to 800 ng/ml with the culture solution and added to the cell culture wells at 50 ul/well. • d) Cell incubation and detection
The cell culture plate was placed in a 37° C. incubator, and the supernatant was collected after culturing for 24 hours. The level of IL-6 in the supernatant was detected by CBA.

The mark [1] stands for this setting: inflammatory factor IL-6 detected by CBA, compound 10 uM, LPS-stimulated THP-1 cells, supernatant after 24 hours.

Read-outs that look alike come from different tables or passages of the source.

One may read the inhibition as the relative decrease from the control value, in per cent.

For the compound `C=C1CCC2[C@]3(C)CO[C@@H](C4CCCC4)O[C@@H]3CC[C@@]2(C)[C@@H]1CCOc1cccc(F)c1C(=O)O` (stereo partly drawn) [Compound 452, 2-(2-((3R,4aR,6aS,7R,10bR)-3-cyclopentyl-6a,10b-dimethyl-8-dihydromethylenedecahydro-1H-naphtho[2,1-d][1,3]dioxin-7-yl)ethoxy)-6-fluoro-benzoic acid], under setting [1], the inhibition at 10 µM lay in the range of 30 to 60%.
Take `C=C1CCC2[C@]3(C)CO[C@@H](C4CCOCC4)O[C@@H]3CC[C@@]2(C)[C@@H]1CCOc1ccncc1` (stereo partly drawn) [Compound 446, 4-(2-((3R,4aR,6aS,7R,10bR)-6a,10b-dimethyl-8-dihydromethylene-3-(tetrahydro-2H-pyran-4-yl)decahydro-1H-naphtho[2,1-d][1,3]dioxin-7-yl)ethoxy)pyridine]: under setting [1], the inhibition at 10 µM was under 30%.
Still for that read-out and setting: under `C=C1CCC2[C@]3(C)CO[C@@H](C4CCCC4)O[C@@H]3CC[C@@]2(C)[C@@H]1CCN1CCN(C)CC1` (stereo partly drawn) [Compound 433, 1-(2-((3R,4aR,6aS,7R,10bR)-3-cyclopentyl-6a,10b-dimethyl-8-methylene-decahydro-1H-naphtho[2,1-d][1,3]dioxin-7-yl)ethyl)-4-methylpiperazine] stands over 60%; under `C=C1CCC2[C@]3(C)CO[C@@H](C4CCCC4)O[C@@H]3CC[C@@]2(C)[C@@H]1CCOc1ccncc1N` (stereo partly shown) [Compound 339], under 30%.
As to `C=C1CCC2[C@]3(C)CO[C@@H](C4CCCC4)O[C@@H]3CC[C@@]2(C)[C@@H]1CCOc1cccnc1C(=O)O` (stereo partly drawn) [Compound 431, 3-(2-((3R,4aR,6aS,7R,10bR)-3-cyclopentyl-6a,10b-dimethyl-8-dihydromethylenedecahydro-1H-naphtho[2,1-d][1,3]dioxin-7-yl)ethoxy)-2-picolinic acid], the inhibition at 10 µM under setting [1] is over 60%.
In the case of `C=C1CCC2[C@]3(C)CO[C@@H](C4CCCC4)O[C@@H]3CC[C@@]2(C)[C@@H]1CCNc1ccncc1F` (stereo partly drawn) [Compound 345, N-(2-((3R,4aR,6aS,7R,10bR)-3-cyclopentyl-6a,10b-dimethyl-8-decahydromethylene-1H-naphtho[2,1-d][1,3]dioxin-7-yl)ethyl)-3-fluoropyridin-4-amine], under “THP-1, 24 h”, the inhibition at 10 µM was in the range of 30 to 60%.
Regarding `C=C1CCC2[C@]3(C)CO[C@@H](C4CCCC4)O[C@@H]3CC[C@@]2(C)[C@@H]1CCOc1cccnc1` (stereo partly drawn) [Compound 310, 3-(2-((3R,4aR,6aS,7R,10bR)-3-cyclopentyl-6a,10b-dimethyl-8-dihydromethylenedecahydro-1H-naphtho[2,1-d][1,3]dioxin-7-yl)ethoxy)-pyridine], under setting [1], the inhibition at 10 µM was over 60%.
On the same count and under the same terms, under `C=C1CCC2[C@]3(C)CO[C@@H](C4CCCC4)O[C@@H]3CC[C@@]2(C)[C@@H]1CCOCc1ccncc1` (stereo partly drawn) [Compound 351, 4-((2-((3R,4aR,6aS,7R,10bR)-3-cyclopentyl-6a,10b-dimethyl-8-dihydromethylenedecahydro-1H-naphtho[2,1-d][1,3]dioxin-7-yl)ethoxy)methyl)pyridine] stands over 60%; under `C=C1CCC2[C@]3(C)CO[C@@H](C4CCCC4)O[C@@H]3CC[C@@]2(C)[C@@H]1CCN1CCC(N2CCCC2)CC1` (stereo partly drawn) [Compound 160, 1-(2-((3R,4aR,6aS,7R,10bR)-3-cyclopentyl-6a,10b-dimethyl-8-methylene-decahydro-1H-naphtho[2,1-d][1,3]dioxin-7-yl)ethyl)-4-(pyrrolidin-1-yl)piperidine], over 60%.
As for `C=C1CCC2[C@]3(C)CO[C@@H](C4CCCC4)O[C@@H]3CC[C@@]2(C)[C@@H]1CCOc1ccn(CC(=O)O)c(=O)c1` (stereo partly drawn) [Compound 428, 2-(4-(2-((3R,4aR,6aS,7R,10bR)-3-cyclopentyl-6a,10b-dimethyl-8-dihydromethylenedecahydro-1H-naphtho[2,1-d][1,3]dioxin-7-yl)ethoxy)-2-carbonylpyridin-1(2H)-yl)acetic acid], for the setting “THP-1, 24 h”, the inhibition at 10 µM lay in the range of 30 to 60%.
Regarding `C=C1CCC2[C@]3(C)CO[C@@H](C4CCCC4)O[C@@H]3CC[C@@]2(C)[C@@H]1CCOc1cccc(C(=O)O)c1` (stereo partly drawn) [Compound 423, 3-(2-((3R,4aR,6aS,7R,10bR)-3-cyclopentyl-6a,10b-dimethyl-8-dihydromethylenedecahydro-1H-naphtho[2,1-d][1,3]dioxin-7-yl)ethoxy)benzoic acid], the inhibition at 10 µM under setting [1] lay in the range of 30 to 60%.
Still for that read-out and setting: under `C=C1CCC2[C@]3(C)CO[C@@H](C4CCCC4)O[C@@H]3CC[C@@]2(C)[C@@H]1CCOc1ccn(C)c(=O)c1` (stereo partly drawn) [Compound 357, 4-(2-((3R,4aR,6aS,7R,10bR)-3-cyclopentyl-6a,10b-dimethyl-8-dihydromethylenedecahydro-1H-naphtho[2,1-d][1,3]dioxin-7-yl)ethoxy)-1-methylpyridin-2(1H)-one] stands over 60%; under `C=C1CCC2[C@]3(C)CO[C@@H](C4CCCC4)O[C@@H]3CC[C@@]2(C)[C@@H]1CCN(CCO)CCCN(C)C` (stereo partly drawn) [Compound 284, 2-((2-((3R,4aR,6aS,7R,10bR)-3-cyclopentyl-6a, 10b-dimethyl-8-methylene-decahydro-1H-naphtho[2,1-d][1,3]dioxin-7-yl)ethyl)(3-(dimethylamino)propyl)amino)ethanol], 30 to 60%.
On the same count and under the same terms, under `C=C1CCC2[C@]3(C)CO[C@@H](C4CCCC4)O[C@@H]3CC[C@@]2(C)[C@@H]1CCOc1ccccc1C(=O)O` (stereo partly drawn) [Compound 407, 2-(2-((3R,4aR,6aS,7R,10bR)-3-cyclopentyl-6a,10b-dimethyl-8-dihydromethylenedecahydro-1H-naphtho[2,1-d][1,3]dioxin-7-yl)ethoxy)benzoic acid] stands over 60%; under `C=C1CCC2[C@]3(C)CO[C@@H](C4CCCC4)O[C@@H]3CC[C@@]2(C)[C@@H]1CCOc1cnc(C(=O)O)nc1` (stereo partly drawn) [Compound 454, 5-(2-((3R,4aR,6aS,7R,10bR)-3-cyclopentyl-6a,10b-dimethyl-8-dihydromethylenedecahydro-1H-naphtho[2,1-d][1,3]dioxin-7-yl)ethoxy)pyrimidine-2-carboxylic acid], 30 to 60%.
Still for that read-out and setting: under `C=C1CCC2[C@]3(C)CO[C@@H](C4CCCC4)O[C@@H]3CC[C@@]2(C)[C@@H]1CCN1CCC(C(=O)O)CC1` (stereo partly drawn) [Compound 256, 1-(2-((3R,4aR,6aS,7R,10bR)-3-cyclopentyl-6a,10b-dimethyl-8-methylene-decahydro-1H-naphtho[2,1-d][1,3]dioxin-7-yl)ethyl)piperidin-4-carboxylic acid] stands under 30%; under `C=C1CCC2[C@]3(C)CO[C@@H](C4CCCC4)O[C@@H]3CC[C@@]2(C)[C@@H]1CCOc1cc(C)ccc1C(=O)O` (stereo partly drawn) [Compound 447, 2-(2-((3R,4aR,6aS,7R,10bR)-3-cyclopentyl-6a,10b-dimethyl-8-dihydromethylenedecahydro-1H-naphtho[2,1-d][1,3]dioxin-7-yl)ethoxy)-4-methylbenzoic acid], under 30%.
With `C=C1CCC2[C@]3(C)CO[C@@H](C4CCCC4)O[C@@H]3CC[C@@]2(C)[C@@H]1CCOC1CCN(C)CC1` (stereo partly drawn) [Compound 366, 4-(2-((3R,4aR,6aS,7R,10bR)-3-cyclopentyl-6a,10b-dimethyl-8-dihydromethylenedecahydro-1H-naphtho[2,1-d][1,3]dioxin-7-yl)ethoxy)-1-methylpiperidine], the inhibition at 10 µM under setting [1] is over 60%.
In the case of `C=C1CCC2[C@]3(C)CO[C@@H](C4CCCC4)O[C@@H]3CC[C@@]2(C)[C@@H]1CCn1cc(C(=O)O)ccc1=O` (stereo partly drawn) [Compound 457, 1-(2-((3R,4aR,6aS,7R,10bR)-3-cyclopentyl-6a,10b-dimethyl-8-dihydromethylene-1H-naphtho[2,1-d][1,3]dioxin-7-yl)ethyl)-6-oxo-1,6-dihydropyridine-3-carboxylic acid], the inhibition at 10 µM (THP-1, 24 h) is over 60%.
Turning to `C=C1CCC2[C@](C)(CO)[C@H](O)CC[C@@]2(C)[C@@H]1CCN1CCC(CO)CC1` (stereo partly shown) [Compound 265], under setting [1], the inhibition at 10 µM was under 30%.
On the same count and under the same terms, under `C=C1CCC2[C@]3(C)CO[C@@H](c4ccc(F)c(F)c4)O[C@@H]3CC[C@@]2(C)[C@@H]1CCN1CCC(CO)CC1` (stereo partly drawn) [Compound 130, (1-(2-((3R,4aR,6aS,7R,10bR)-3-(3,4-difluorophenyl)-6a,10b-dimethyl-8-methylenedecahydro-1H-naphtho[2,1-d][1,3]dioxin-7-yl)ethyl)piperidin-4-yl)methanol] stands under 30%; under `C=C1CCC2[C@]3(C)CO[C@@H](C4CCCC4)O[C@@H]3CC[C@@]2(C)[C@@H]1CCOc1c(C(=O)O)cncc1C(=O)O` (stereo partly drawn) [Compound 417, 4-(2-((3R,4aR,6aS,7R,10bR)-3-cyclopentyl-6a,10b-dimethyl-8-dihydromethylenedecahydro-1H-naphtho[2,1-d][1,3]dioxin-7-yl)ethoxy)pyridine-3,5-dicarboxylic acid], under 30%; under `C=C1CCC2[C@]3(C)CO[C@@H](C4CCCC4)O[C@@H]3CC[C@@]2(C)[C@@H]1CCN1CCOCC1` (stereo partly drawn) [Compound 123, 4-(2-((3R,4aR,6aS,7R,10bR)-3-cyclopentyl-6a,10b-dimethyl-8-methylenedecahydro-1H-naphtho[2,1-d][1,3]dioxin-7-yl)ethyl)morpholine], under 30%.
The same measure, in the same setting: under `C=C1CCC2[C@]3(C)CO[C@@H](C4CCCC4)O[C@@H]3CC[C@@]2(C)[C@@H]1CCN1CCC[C@@H]1C(=O)O` (stereo partly shown) [Compound 450] stands over 60%; under `C=C1CCC2[C@]3(C)CO[C@@H](C(C)C)O[C@@H]3CC[C@@]2(C)[C@@H]1CCOc1ccncc1` (stereo partly drawn) [Compound 411, 4-(2-((3R,4aR,6aS,7R,10bR)-3-isopropyl-6a,10b-dimethyl-8-dihydromethylenedecahydro-1H-naphtho[2,1-d][1,3]dioxin-7-yl)ethoxy)pyridine], over 60%.
